Experimental data published in patent publication US20140378374A1, “METHODS OF TREATMENT” (GlaxoSmithKline Intellectual Property (No.2) Limited, priority 2013, published 2014).
Where two headings read alike, the source gives them in different places.

Columns and labels:
[1] = Population pharmacokinetics, Phase 3 pooled analysis; assay type: in vivo, human
Excerpt: During each Phase 3 study, 4 blood samples for population pharmacokinetic evaluation were obtained. In the study of patients with CKD, 2 predose samples were obtained at weeks 8 and 16 and 2 postdose samples were obtained at least 2 days after dosing between weeks 8 and 10 and weeks 16 and 20. In the other 3 studies, 2 predose samples were obtained at weeks 8 and 24 and 2 postdose samples were obtained at least 2 days after dosing between weeks 8 and 10 and weeks 24 and 28. The blood collection and storage procedure were the same as described above.
Plasma samples were analyzed for albiglutide by using a validated enzyme-linked immunosorbent assay (ELISA) and were diluted 100-fold with sample buffer before analysis. Albiglutide was captured using a rabbit anti-human GLP-1 (7-36) amide and detected using a rabbit anti-HSA conjugated to biotin. ELISA experiments were performed using the Furoninc® 96 well plate (Nunc, cat. #437796) with the following steps. […] The microtiter plate was washed 5 times with […] wash buffer (10 mM Sodium Phosphate, 150 mM NaCl, 0.05% Tween 20, pH 7.5) using plate washer; 2) […] blocking buffer of SuperBlock in PBS (SuperBlock (Pierce, cat. #37515) in PBS, 5.0% Rabbit Plasma) was added to each well, sealed and incubated with constant shaking for approximately 1.5 hour (±30 minutes) at ambient room temperature and the microtiter plate washed; 3) 100 mL of either standards, quality controls (QCs) or samples were added per well, sealed, incubated and washed; 4) 100 mL of Detection Antibody solution of Biotin Labelled Rabbit polyclonal to Human Serum Albumin (NOVUS Biologicals, cat. # NB 100-1674) was added per well, sealed, incubated and washed; 5) 100 mL of Reporter Tag solution (Streptavidin-HRPO Conjugate, Caltag, cat. # SA1007) was added per well, sealed, incubated and washed; 6) 100 mL of Development Substrate Pico (SuperSignal ELISA, Pierce, cat. #37070) was added, incubated and the plate read using plate reader (Wallac 1420 Victor Multilabel Counter, Perkin Elmer Life Sciences, Boston, Mass.). […]

patients with T2D and RI = assay type: in vivo, human; settings: for Model-adjusted change from baseline A1C, LS mean (SE): ANCOVA
Description: Therapies for type 2 diabetes mellitus (T2DM) with renal impairment (RI) are limited and may require dose adjustment. This 52-week randomized, double blind, active controlled, Phase III parallel group study examined efficacy/safety of QW Albi injections (30 mg uptitrated to 50 mg if needed) vs daily Sita in patients with T2D and RI (eGFR≧15 and <90 mL/min/1.73 m^2) and A1C 7-10% on lifestyle (11% of subjects) or metformin (Met), thiazoldinedone (TZD), sulfonylureas (SU), or any combination (89% of patients). […] Primary endpoint was A1C change at week 26 for Albi vs Sita (noninferiority with subsequent superiority analysis). Eligible subjects were men or non pregnant, nonlactating women, 18 years of age or older, with a historical diagnosis of T2DM who were experiencing inadequate glycemic control on their current regimen of diet and exercise or their antidiabetic therapy of metformin, TZD, SU, or any combination of these OAD medications.

[2] = Week 26, Moderate RI (eGFR 30-59)
[3] = Week 26, Severe RI (eGFR 15-29)

With “Albiglutide: recombinant fusion protein of 2 copies of modified human GLP-1 (fragment 7-36(A8G)) genetically fused in series to recombinant human serum albumin” the “apparent clearance CL/F, typical value of the final population PK model” value ([1]; BW 90.7, eGFR 77.9, covariates body weight, eGFR, African heritage, insulin) was 66.6 mL/h, the “decrease in clearance vs eGFR around 80 mL/min/1.73 m2” value ([1]; patient with eGFR of 50 mL/min/1.73 m2) was “about 9%” and the “decrease in clearance vs eGFR around 80 mL/min/1.73 m2” value ([1]; typical patient with eGFR of 30 mL/min/1.73 m2) was “about 19%”. The “Week 26 A1C, mean” value (patients with T2D and RI; Any RI (eGFR 15-89)) was 7.27%, the “Week 26 A1C, mean” value (patients with T2D and RI; Mild RI (eGFR 60-89 mL/min/1.73 m2)) was 7.23% and the “Week 26 A1C, mean” value (patients with T2D and RI; Moderate RI (eGFR 30-59)) was 7.37%. For the same substance, the “A1C change at week 26, Albi vs Sita, superiority analysis” value (patients with T2D and RI; P=0.0003) was “superior”, the “Week 26 A1C, mean” value (patients with T2D and RI; Severe RI (eGFR 15-29)) was 6.97% and the “A1C<7% achieved, patients” value (patients with T2D and RI; Week 26) was 42.6%. For the same substance, the FPG change (patients with T2D and RI; Week 26) was -25.6 mg/dL, the weight change (patients with T2D and RI; Week 26) was -0.8 kg and the “Model-adjusted change from baseline A1C, LS mean (SE)” value (from here on “Model-adjusted change … (SE)”) (patients with T2D and RI; Week 26, Any RI (eGFR 15-89)) was −0.83%. For the same substance, the “Model-adjusted change … (SE)” value (patients with T2D and RI; Week 26, Mild RI (eGFR 60-89)) was −0.80%, the “Model-adjusted change … (SE)” value (patients with T2D and RI; [2]) was −0.83% and the “Model-adjusted change … (SE)” value (patients with T2D and RI; [3]) was −1.08%. The “Change from baseline A1C, mean (SD)” value (patients with T2D and RI; Week 26, Any RI (eGFR 15-89)) was −0.82%, the “Difference of LS means from sitagliptin (95% CI), A1C” value (“Difference … (95% CI), A1C” for short) (patients with T2D and RI; Week 26, Any RI (eGFR 15-89)) was 0.32% and the “Difference … (95% CI), A1C” value (patients with T2D and RI; Week 26, Any RI (eGFR 15-89), listed as Albi) was −0.32%. The “Change from baseline A1C, mean (SD)” value (patients with T2D and RI; Week 26, Mild RI (eGFR 60-89)) was −0.72%, the “Difference … (95% CI), A1C” value (patients with T2D and RI; Week 26, Mild RI (eGFR 60-89)) was −0.13% and the “Change from baseline A1C, mean (SD)” value (patients with T2D and RI; [2]) was −0.88%. For the same substance, the “Difference … (95% CI), A1C” value (patients with T2D and RI; [2]) was −0.53%, the “Change from baseline A1C, mean (SD)” value (patients with T2D and RI; [3]) was −1.08% and the “Difference … (95% CI), A1C” value (patients with T2D and RI; [3]) was −0.47%. For the same substance, the “Adverse Event rate: diarrhea” value (patients with T2D and RI; in vivo) was 8.8%, the “Adverse Event rate: nausea” value (patients with T2D and RI; in vivo) was 4.8% and the “Adverse Event rate: vomiting” value (patients with T2D and RI; in vivo) was 1.6%. For the same substance, the Anti-Albi antibody rate (patients with T2D and RI; in vivo) was 2.8%, the “Anti-Albi antibody, neutralizing” value (patients with T2D and RI; in vivo) was 0% and the Hypoglycemia rate (patients with T2D and RI; in vivo) was 20.5%. The “Hypoglycemia, severe (number)” value (patients with T2D and RI; in vivo) was 0, the “Injection site reaction rate” value (patients with T2D and RI; in vivo) was 6.8% and the “On-therapy adverse event: Constipation” value (patients with T2D and RI; in vivo) was 15 (6.0) n (%). For the same substance, the “On-therapy adverse event: Diarrhea” value (patients with T2D and RI; in vivo) was 22 (8.8) n (%), the “On-therapy adverse event: Hypertension” value (patients with T2D and RI; in vivo) was 10 (4.0) n (%) and the “On-therapy adverse event: Nasopharyngitis” value (patients with T2D and RI; in vivo) was 13 (5.2) n (%). For the same substance, the “On-therapy adverse event: Upper respiratory tract infection” value (patients with T2D and RI; in vivo) was 9 (3.6) n (%) and the “On-therapy adverse event: Urinary tract infection” value (patients with T2D and RI; in vivo) was 8 (3.2) n (%).
